{
  "source": "patent US7563788B2",
  "about": "“Substituted Imidazo[1,2-a]pyridines as Antibacterial Agents” (Pfizer Inc., priority 2004, dated 2009)",
  "data": [
    {"system": "Neisseria gonorrhoeae, GC525 (NG-2888)", "assay": "In-vitro antibacterial activity, microbroth dilution MIC susceptibility testing", "format": "cell-based", "details": "gonococcal broth, 20-24 hours at 35° C., lowest concentration preventing visible growth", "procedure": "The in-vitro antibacterial activity of selected compounds was determined against a stain of Neisseria gonorrhoeae, GC525 (NG-2888), which is described by Rouquette-Loughlin et al, in Journal of Bacteriology, February 2003, p. 1101-1106, at p. 1103. In general, minimum inhibitory concentration (MIC) susceptibility testing followed procedures recommended by the National Committee for Clinical Laboratory Standards (NCCLS^1-2) or followed the descriptions described below:\nNeisseria gonorrhoeae strains were grown on Chocolate Agar II plates (BBL—Becton Dickinson Microbiology Systems, Cockeysville, Md.) and incubated at 35° C. in a humidified 5% CO2 incubator (Forma Scientific, Marietta Ohio). For microbroth dilution MIC testing, N. gonorrhoeae were tested in gonococcal broth (GCB):\nBacterial culture identifications were confirmed by standard microbiological methods.^4 N. gonorrhoeae strains were streaked onto appropriate agar plates for visualization of purity and expected colony morphology. Gram stains were also utilized.\nBacterial stock cultures are stored as frozen suspensions at −70° C. N. gonorrhoeae cultures are suspended in inactivated Horse Serum (Colorado Serum Company, Denver, Colo.) containing 7.5% glucose prior to snap freezing in a dry ice/ethanol bath.\nFrozen stock cultures were used as the initial source of organisms for performing microbroth dilution MIC testing. Stock cultures were passed on their respective growth medium at least one growth cycle (18-24 hours) prior to their use. Bacterial culture suspensions were prepared directly from Chocolate Agar II plates into 10 mL cation-adjusted Mueller-Hinton Broth (CAMHB, BBL, # BB215069). Before use, cultures were adjusted to an optical density value of […] on a Perkin-Elmer Lambda EZ150 Spectrophotometer (Wellesley, Mass.) set at a wavelength of 600 nm. Random cultures were plated for validation of actual colony counts. The adjusted cultures were diluted 400-fold (0.25 mL inoculum+100 mL GCB) into gonococcal broth producing a starting inoculum of approximately 5×10^5 cfu/mL. These cultures were inoculated into test plates (100 uL/well) using a Biomek® FX workstation (Beckman Coulter Inc., Fullerton, Calif.). The inoculated plates were placed in stacks of no more than 4 and covered with an empty plate. Plates were incubated for 20-24 hours at 35° C. in a humidified CO2 incubator.\nDrug stock solutions (2 mg/mL in DMSO) were prepared on the day of testing. Drugs were weight corrected for assay content where necessary.\nMicrobroth dilution stock plates were prepared in two dilution series, 64-0.06 ug drug/mL and 1-0.001 ug drug/mL. For the high concentration series, 200 uL of stock solution (2 mg/mL) was added to duplicate rows of a 96-well plate. This was used as the first well in the dilution series. Serial two-fold decremental dilutions were made using a BioMek FX robot (Beckman Coulter Inc., Fullerton, Calif.) with 10 of the remaining 11 wells, each of which contained 100 uL of the appropriate solvent/diluent. Row 12 contained solvent/diluent only and served as the control. For tube one of the low concentration series, 200 uL of a 31.25 ug/mL stock was added to duplicate rows of a 96-well plate. Serial two-fold dilutions were made as described above.\nDaughter plates were spotted (3.2 uL/well) from the stock plates listed above using the BioMek FX robot and were inoculated with organism (100 uL/well) as described previously.\nAfter incubation, the degree of growth in each well was read visually with the aid of a Test Reading Mirror (Dynatech Lab 220-16, Dynex Technologies, Chantilly, Va.). 96-well test plates are read in a darkened room with a single light shining from above. The MIC is the lowest concentration of drug that prevents macroscopically visible growth under the conditions of the test. Each drug dilution series was tested in duplicate; identical results are not always obtained. If MIC values in duplicate tests differ by 1 well (two-fold), the […] value is reported. […]", "units": {"MIC": "µg/mL"}, "values": [
      {"smiles": "CCNC(=O)Nc1cn2ccc(-c3cccnc3)cc2n1", "note": "[Example 1B, 1-Ethyl-3-(7-pyridin-3-yl-imidazo[1,2-a]pyridin-2-yl)-urea]", "MIC": 16},
      {"smiles": "CCNC(=O)Nc1nc2cc(-c3cnc(N(C)C)nc3)ccn2c1Cl", "note": "[Example 17, 1-[3-Chloro-7-(2-dimethylamino-pyrimidin-5-yl)-imidazo[1,2-a]pyridin-2-yl]-3-ethyl-urea]", "MIC": "> 32"},
      {"smiles": "CCNC(=O)Nc1cn2c(-c3nc(C)no3)cc(-c3cccnc3)cc2n1", "note": "[Example 45, 1-Ethyl-3-[5-(3-methyl-[1,2,4]oxadiazol-5-yl)-7-pyridin-3-yl-imidazo[1,2-a]pyridin-2-yl]-urea]", "MIC": 0.25},
      {"smiles": "O=C(NCC(F)(F)F)Nc1cn2ccc(-c3cncnc3)cc2n1", "note": "[Example 31, 1-(7-Pyrimidin-5-yl-imidazo[1,2-a]pyridin-2-yl)-3-(2,2,2-trifluoro-ethyl)-urea]", "MIC": 64},
      {"smiles": "CCNC(=O)Nc1cn2ccc(-c3c(C)noc3C)cc2n1", "note": "[Example 9, 1-[7-(3,5-Dimethyl-isoxazol-4-yl)-imidazo[1,2-a]pyridin-2-yl]-3-ethyl-urea]", "MIC": "> 64"},
      {"smiles": "CCNC(=O)Nc1cn2ccc(-c3cnn(C)c3)cc2n1", "note": "[Example 12, 1-Ethyl-3-[7-(1-methyl-1H-pyrazol-4-yl)-imidazo[1,2-a]pyridin-2-yl]-urea]", "MIC": 64},
      {"smiles": "COCCNC(=O)Nc1cn2ccc(-c3cncnc3)cc2n1", "note": "[Example 32, 1-(2-Methoxy-ethyl)-3-(7-pyrimidin-5-yl-imidazo[1,2-a]pyridin-2-yl)-urea]", "MIC": "> 64"},
      {"smiles": "CCNC(=O)Nc1cn2ccc(-c3noc(C(C)C)n3)cc2n1", "note": "[Example 40, 1-Ethyl-3-[7-(5-isopropyl-[1,2,4]oxadiazol-3-yl)-imidazo[1,2-a]pyridin-2-yl]-urea]", "MIC": "> 64"},
      {"smiles": "CCOC(=O)Nc1cn2cnc(-c3cccnc3)cc2n1", "note": "[Example 5, (7-Pyridin-3-yl-imidazo[1,2-c]pyrimidin-2-yl)-carbamic Acid Ethyl Ester]", "MIC": "> 64"},
      {"smiles": "CCNC(=O)Nc1cn2c(C(=O)OC)cc(-c3cccnc3)cc2n1", "note": "[Example 7B, 2-(3-Ethyl-ureido)-7-pyridin-3-yl-imidazo[1,2-a]pyridine-5-carboxylic Acid Methyl Ester]", "MIC": 0.5},
      {"smiles": "CCNC(=O)Nc1cn2c(C(=O)NCC)cc(-c3cnc(N(C)C)nc3)cc2n1", "note": "[Example 50, 7-(2-Dimethylamino-pyrimidin-5-yl)-2-(3-ethyl-ureido)-imidazo[1,2-a]pyridine-5-carboxylic Acid Ethylamide]", "MIC": 2},
      {"smiles": "CCOC(=O)Nc1cn2ccc(-c3cccnc3)cc2n1", "note": "[Example 1A, (7-Pyridin-3-yl-imidazo[1,2-a]pyridin-2-yl)-carbamic Acid Ethyl Ester]", "MIC": "> 64"},
      {"smiles": "CCNC(=O)Nc1cn2ccc(-c3cnc(OC)nc3OC)cc2n1", "note": "[Example 13, 1-[7-(2,4-Dimethoxy-pyrimidin-5-yl)-imidazo[1,2-a]pyridin-2-yl]-3-ethyl-urea]", "MIC": "> 64"},
      {"smiles": "CCNC(=O)Nc1cn2ccc(-c3c(C)n[nH]c3C)cc2n1", "note": "[Example 25, 1-[7-(3,5-Dimethyl-1H-pyrazol-4-yl)-imidazo[1,2-a]pyridin-2-yl]-3-ethyl-urea]", "MIC": 64},
      {"smiles": "O=C(Nc1cn2ccc(-c3cncnc3)cc2n1)NC1CC1", "note": "[Example 27, 1-Cyclopropyl-3-(7-pyrimidin-5-yl-imidazo[1,2-a]pyridin-2-yl)-urea]", "MIC": 64},
      {"smiles": "CCNC(=O)Nc1cn2ccc(-c3noc(C)n3)cc2n1", "note": "[Example 22, 1-Ethyl-3-[7-(5-methyl-[1,2,4]oxadiazol-3-yl)-imidazo[1,2-a]pyridin-2-yl]-urea]", "MIC": "> 64"},
      {"smiles": "O=C(Nc1cn2ccc(-c3cncnc3)cc2n1)NC1CCC1", "note": "[Example 33, 1-Cyclobutyl-3-(7-pyrimidin-5-yl-imidazo[1,2-a]pyridin-2-yl)-urea]", "MIC": 16},
      {"smiles": "CCNC(=O)Nc1cn2ccc(-c3c(C)nn(C(=O)OC(C)(C)C)c3C)cc2n1", "note": "[Example 14, 4-[2-(3-Ethyl-ureido)-imidazo[1,2-a]pyridin-7-yl]-3,5-dimethyl-pyrazole-1-carboxylic Acid Tert-Butyl Ester]", "MIC": 64},
      {"smiles": "CCNC(=O)Nc1cn2c(-c3ncccn3)cc(-c3cnc(N(C)C)nc3)cc2n1", "note": "[Example 51, 1-[7-(2-Dimethylamino-pyrimidin-5-yl)-5-pyrimidin-2-yl-imidazo[1,2-a]pyridin-2-yl]-3-ethyl-urea]", "MIC": 0.13},
      {"smiles": "CCNC(=O)Nc1cn2ccc(-c3csnn3)cc2n1", "note": "[Example 39, 1-Ethyl-3-(7-[1,2,3]thiadiazol-4-yl-imidazo[1,2-a]pyridin-2-yl)-urea]", "MIC": 16},
      {"smiles": "CCNC(=O)Nc1cn2ccc(-c3ccnc(OC)c3)cc2n1", "note": "[Example 44, 1-Ethyl-3-[7-(2-methoxy-pyridin-4-yl)-imidazo[1,2-a]pyridin-2-yl]-urea]", "MIC": 16},
      {"smiles": "CCNC(=O)Nc1cn2ccc(-c3ccnc(NC(=O)OC(C)(C)C)c3)cc2n1", "note": "[Example 37, {4-[2-(3-Ethyl-ureido)-imidazo[1,2-a]pyridin-7-yl]-pyridin-2-yl}-carbamic Acid Tert-Butyl Ester]", "MIC": 64},
      {"smiles": "O=C(NCC1CC1)Nc1cn2ccc(-c3cncnc3)cc2n1", "note": "[Example 28, 1-Cyclopropylmethyl-3-(7-pyrimidin-5-yl-imidazo[1,2-a]pyridin-2-yl)-urea]", "MIC": 32},
      {"smiles": "CC(C)NC(=O)Nc1cn2ccc(-c3cncnc3)cc2n1", "note": "[Example 30, 1-Isopropyl-3-(7-pyrimidin-5-yl-imidazo[1,2-a]pyridin-2-yl)-urea]", "MIC": 32},
      {"smiles": "CCCNC(=O)Nc1cn2ccc(-c3cncnc3)cc2n1", "note": "[Example 29, 1-Propyl-3-(7-pyrimidin-5-yl-imidazo[1,2-a]pyridin-2-yl)-urea]", "MIC": 16},
      {"smiles": "CCNC(=O)Nc1cn2ccc(-c3ccc(N)nc3)cc2n1", "note": "[Example 34, 1-[7-(6-Amino-pyridin-3-yl)-imidazo[1,2-a]pyridin-2-yl]-3-ethyl-urea]", "MIC": 16},
      {"smiles": "CCNC(=O)Nc1cn2ccc(C(=O)OC)cc2n1", "note": "[Example 18, 2-(3-Ethyl-ureido)-imidazo[1,2-a]pyridine-7-carboxylic Acid Methyl Ester]", "MIC": "> 64"},
      {"smiles": "CCNC(=O)Nc1cn2ccc(-c3ccc(F)nc3)cc2n1", "note": "[Example 46, 1-Ethyl-3-[7-(6-fluoro-pyridin-3-yl)-imidazo[1,2-a]pyridin-2-yl]-urea]", "MIC": 16},
      {"smiles": "CCNC(=O)Nc1cn2ccc(-c3nnc(C)o3)cc2n1", "note": "[Example 36, 1-Ethyl-3-[7-(5-methyl-[1,3,4]oxadiazol-2-yl)-imidazo[1,2-a]pyridin-2-yl]-urea]", "MIC": 64},
      {"smiles": "CCNC(=O)Nc1cn2ccc(-c3ccc(OCCN4CCOCC4)nc3)cc2n1", "note": "[Example 6, 1-Ethyl-3-{7-[6-(2-morpholin-4-yl-ethoxy)-pyridin-3-yl]-imidazo[1,2-a]pyridin-2-yl}-urea]", "MIC": 45.3},
      {"smiles": "CCNC(=O)Nc1cn2ccc(C(C)=O)cc2n1", "note": "[Example 35, N-(7-acetylimidazo[1,2-a]pyridin-2-yl)-N′-ethylurea]", "MIC": 64},
      {"smiles": "CCNC(=O)Nc1nc2cc(-c3cccnc3)ccn2c1Cl", "note": "[Example 16, 1-(3-Chloro-7-pyridin-3-yl-imidazo[1,2-a]pyridin-2-yl)-3-ethyl-urea]", "MIC": 64},
      {"smiles": "CCNC(=O)Nc1cn2ccc(-c3cn[nH]c3)cc2n1", "note": "[Example 15, 1-Ethyl-3-[7-(1H-pyrazol-4-yl)-imidazo[1,2-a]pyridin-2-yl]-urea]", "MIC": 64},
      {"smiles": "CCNC(=O)Nc1cn2c(-c3cnn(C)c3)cc(-c3cccnc3)cc2n1", "note": "[Example 23, 1-Ethyl-3-[5-(1-methyl-1H-pyrazol-4-yl)-7-pyridin-3-yl-imidazo[1,2-a]pyridin-2-yl]-urea]", "MIC": 0.13}
    ]}
  ]
}
